Measurements published in patent US20250026769A1, “PAPD5 INHIBITORS AND METHODS OF USE THEREOF” (The Children's Medical Center Corporation, priority 2021, published 2025).

Target: T1, rPAPD5 (Homo sapiens, UniProt Q8NDF8)
T1 construct: made in house
Assay: differential scanning fluorimetry (DSF) binding and stabilization of rPAPD5
Details: 100 μM test compound; shift vs DMSO control; read-out: ΔTm at 100 μM
Procedure, shortened: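 Compound-induced shifts in rPAPD5 melting temperature were determined by thermal shift (DSF). Protein at […] was mixed with a non-extendable ATP analog […] in Tris-HCl (25 mM), MgCl2 (5 mM) and KCl (50 mM), with SYPRO orange at 1:5000. Curves were averages of three measurements analyzed with Thermal Shift software, and ΔTm was referenced to DMSO.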

T1 sequence (Q8NDF8 68-698 isoform Q8NDF8-5 limits assumed): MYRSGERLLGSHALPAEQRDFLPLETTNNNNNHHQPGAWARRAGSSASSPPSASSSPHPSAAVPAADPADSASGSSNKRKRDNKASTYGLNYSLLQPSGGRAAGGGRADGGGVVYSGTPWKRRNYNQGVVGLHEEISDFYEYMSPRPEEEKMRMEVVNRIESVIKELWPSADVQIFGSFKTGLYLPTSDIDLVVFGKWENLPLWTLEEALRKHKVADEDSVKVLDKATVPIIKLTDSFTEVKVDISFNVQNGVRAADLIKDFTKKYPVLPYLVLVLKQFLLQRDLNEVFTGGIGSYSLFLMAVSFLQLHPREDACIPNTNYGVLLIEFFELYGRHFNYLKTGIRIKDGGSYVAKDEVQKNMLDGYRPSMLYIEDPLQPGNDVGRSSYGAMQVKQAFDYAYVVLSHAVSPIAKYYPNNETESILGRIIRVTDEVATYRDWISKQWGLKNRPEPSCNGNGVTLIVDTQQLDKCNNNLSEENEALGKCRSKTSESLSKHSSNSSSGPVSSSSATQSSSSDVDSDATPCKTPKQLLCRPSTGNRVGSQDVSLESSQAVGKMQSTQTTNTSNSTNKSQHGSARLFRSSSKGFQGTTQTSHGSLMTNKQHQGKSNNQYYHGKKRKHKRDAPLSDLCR

Row | ΔTm at 100 µM [°C] | SMILES
1 | > 5 | O=C(O)c1ccc(Cl)cc1Nc1c(S(=O)(=O)N2CCOCC2)cnc2ccc(Cl)cc12 [Compound 274A, 4-chloro-2-[(6-chloro-3-morpholinosulfonyl-4-quinolyl)amino]benzoic acid]
2 | > 5 | O=C(O)c1ccc(F)cc1Nc1c(S(=O)(=O)N2CCOCC2)cnc2ccc(Cl)cc12 [Compound 275A, 2-[(6-chloro-3-morpholinosulfonyl-4-quinolyl)amino]-4-fluoro-benzoic acid]
3 | > 5 | O=C(O)c1ccc(Br)cc1Nc1c(S(=O)(=O)N2CCOCC2)cnc2ccc(Cl)cc12 [Compound 276A, 4-bromo-2-[(6-chloro-3-morpholinosulfonyl-4-quinolyl)amino]benzoic acid]
4 | > 5 | COc1ccc(C(=O)O)c(Nc2c(S(=O)(=O)N3CCOCC3)cnc3ccc(Cl)cc23)c1 [Compound 277A, 2-[(6-chloro-3-morpholinosulfonyl-4-quinolyl)amino]-4-methoxy-benzoic acid]
5 | 1 to 5 | O=C(O)c1ccc(C(F)(F)F)cc1Nc1c(S(=O)(=O)N2CCOCC2)cnc2ccc(Cl)cc12 [Compound 278A, 2-[(6-chloro-3-morpholinosulfonyl-4-quinolyl)amino]-4-(trifluoromethyl)benzoic acid]
6 | 1 to 5 | O=C(O)c1cccc(O)c1Nc1c(S(=O)(=O)N2CCOCC2)cnc2ccc(Cl)cc12 [Compound 279A, 2-[(6-chloro-3-morpholinosulfonyl-4-quinolyl)amino]-3-hydroxy-benzoic acid]
7 | > 5 | O=C(O)c1cccc(Cl)c1Nc1c(S(=O)(=O)N2CCOCC2)cnc2ccc(Cl)cc12 [Compound 280A, 3-chloro-2-[(6-chloro-3-morpholinosulfonyl-4-quinolyl)amino]benzoic acid]
8 | > 5 | O=C(O)c1cccc(F)c1Nc1c(S(=O)(=O)N2CCOCC2)cnc2ccc(Cl)cc12 [Compound 281A, 2-[(6-chloro-3-morpholinosulfonyl-4-quinolyl)amino]-3-fluoro-benzoic acid]
9 | > 5 | O=C(O)c1cccc(Br)c1Nc1c(S(=O)(=O)N2CCOCC2)cnc2ccc(Cl)cc12 [Compound 282A, 3-bromo-2-[(6-chloro-3-morpholinosulfonyl-4-quinolyl)amino]benzoic acid]
10 | > 5 | Cc1cccc(C(=O)O)c1Nc1c(S(=O)(=O)N2CCOCC2)cnc2ccc(Cl)cc12 [Compound 283A, 2-[(6-chloro-3-morpholinosulfonyl-4-quinolyl)amino]-3-methyl-benzoic acid]
11 | 1 to 5 | COc1cccc(C(=O)O)c1Nc1c(S(=O)(=O)N2CCOCC2)cnc2ccc(Cl)cc12 [Compound 284A, 2-[(6-chloro-3-morpholinosulfonyl-4-quinolyl)amino]-3-methoxy-benzoic acid]
12 | < 1 | O=C(O)c1cccc(C(F)(F)F)c1Nc1c(S(=O)(=O)N2CCOCC2)cnc2ccc(Cl)cc12 [Compound 285A, 2-[(6-chloro-3-morpholinosulfonyl-4-quinolyl)amino]-3-(trifluoromethyl)benzoic acid]
13 | > 5 | O=C(O)c1ccc(B(O)O)cc1Nc1c(S(=O)(=O)N2CCOCC2)cnc2ccc(Cl)cc12 [Compound 289A, 4-borono-2-[(6-chloro-3-morpholinosulfonyl-4-quinolyl)amino]benzoic acid]
14 | < 1 | NS(=O)(=O)c1ccc(Nc2c(S(=O)(=O)N3CCOCC3)cnc3ccc(Cl)cc23)c(C(=O)O)c1 [Compound 290A, 2-[(6-chloro-3-morpholinosulfonyl-4-quinolyl)amino]-5-sulfamoyl-benzoic acid]
15 | 1 to 5 | O=S(=O)(c1cnc2ccc(Cl)cc2c1Nc1ccccc1B(O)O)N1CCOCC1 [Compound 292A, [2-[(6-chloro-3-morpholinosulfonyl-4-quinolyl)amino]phenyl]boronic acid]
16 | 1 to 5 | O=C(O)c1cc(C(O)C(F)(F)F)ccc1Nc1c(S(=O)(=O)N2CCOCC2)cnc2ccc(Cl)cc12 (stereo not shown) [Compound 293A, 2-[(6-chloro-3-morpholinosulfonyl-4-quinolyl)amino]-5-(2,2,2-trifluoro-1-hydroxy-ethyl)benzoic acid]
